Assay results: patent US5691319A, “Pyrimidine nucleoside derivatives having anti-tumor activity, their preparation and use” (Sankyo Company, Limited, priority 1991, dated 1997)

Key:
[1] = test system: p-388 leukemia; assay: Anti-tumor activity against p-388 leukemia (ip implanted, CDF1 mice); format: in vivo; details: for ILS (%) (increase in life span): days 1, 5 and 9; for 30 days survivors: days 1, 5 and 9, survivors/mice
Procedure: The test animals employed were female mice, 8 weeks of age, of the CDF1 strain, each weighing 21-25 g. The mice were divided into groups. each of 5 mice, and all mice within the group were treated identically. Into each mouse was implanted intraperitoneally 1×10^6 cells of the leukemia p-388.
The test compounds 1-9, 1-11, 1-15, 1-31 and 1-62 were dissolved in 0.2 ml of N,N-dimethylacetamide and the solution was mixed with 10% Emulphor (trade mark)-physiological saline on an agate mortar. Test compounds 1-34 and 1-41 were dissolved in a small amount of Tween 80 (registered trade mark) and immediately thereafter physiological saline was added to the solution form a suspension. The suspension was administered intraperitoneally on the first, fifth and ninth days following implantation of the leukemia cells. The period for which the mice survived was determined. A control group was treated identically, except that no active compound was administered.
The anti-tumor effect is shown in the following Table 3 as the increase in life span [ILS (%)], calculated from the following equation [R. I. Geran et al, Cancer Chemother. Rept., 3 (1972)]:
Dt=average number of days survival by the test group; and
Dc=average number of days survival by the control group.
In this test Dc was 9-10 days.

[2] = test system: mouse fibrosarcoma M5076; assay: Anti-tumor activity against M5076 fibrosarcoma (sc implanted, BDF1 mice); format: in vivo; details: days 1, 4, 7, 10, 13 and 16; for 60 day survivors optimal dose / growth inhibition (%) optimal dose: oral; for 60 day survivors optimal dose: survivors/mice; for growth inhibition (%) optimal dose / growth inhibition (%) optimal dose/4: tumor size on twentieth day; for growth inhibition (%) optimal dose/4: optimal dose/4, oral
Procedure: The test animals used were female mice, 8-10 weeks old, of the BDF1 strain, weighing 20-25 g. The mice were purchased from Charles River Japan Inc., Kanagawa Japan. The mice were divided into experimental groups, each group containing 6 mice, and all mice within each group were treated identically. Each mouse was inoculated subcutaneously with 1×10^6 viable cells (the number of cells was measured by a dye exclusion method under microscopy) of the mouse fibrosarcoma M5076.
The test compounds listed in the following Table were dissolved in 0.2 ml of N,N-dimethylacetamide and the solution was mixed with 10% Emulphor (trade mark)-physiological saline on an agate mortar. The final concentration of N,N-dimethylacetamide was 5% v/v. The solution was administered orally on the first, fourth, seventh, tenth, thirteenth and sixteenth days following inoculation of the fibrosarcoma cells. The period for which the mice survived and the % inhibition of tumor growth were determined. A control group was not treated.
The anti-tumor effect is shown in the following Table 4 as the percent growth inhibition [GI (%)], calculated from the following equations [R. I. Geran et al., Cancer Chemother. Rept., 3 (1972)]:
TDt=average value of tumor sizes on the twentieth day in the treated group; and
TDc=average value of tumor sizes on the twentieth day in the control group;
tumor size=(tumor length+tumor width)/2.

SMILES | ILS (%) (increase in life span) ([1]; dose 50 mg/kg) | 30 days survivors ([1]; dose 50 mg/kg) | 60 day survivors optimal dose [2] | growth inhibition (%) optimal dose [2] | growth inhibition (%) optimal dose/4 [2] | ILS (%) (increase in life span) ([1]; dose 100 mg/kg) | 30 days survivors ([1]; dose 100 mg/kg) | ILS (%) (increase in life span) ([1]; dose 200 mg/kg) | 30 days survivors ([1]; dose 200 mg/kg)
CCCCCCCCCCCCCCCC(=O)Nc1ccn([C@@H]2O[C@H](CO)[C@@H](O)[C@@H]2C#N)c(=O)n1 [Compound 1-11, 2'-Cyano-2'-deoxy-N^4-palmitoyl-1-β-D-arabinofuranosylcytosine] | 189% | 2/5 | 5/6 | 99.2% | 90.2% | – | – | – | –
CCCCCCCCCCCCCCCCCCCC(=O)Nc1ccn([C@@H]2O[C@H](CO)[C@@H](O)[C@@H]2C#N)c(=O)n1 [Compound 1-15, 2'-Cyano-2'-deoxy-N^4-icosanoyl-1-β-D-arabinofuranosylcytosine] | – | – | 5/6 | 96.5% | 88.7% | 202% | 0/5 | – | –
CCCCCCCCCCCCCCCCCC(=O)Nc1ccn([C@@H]2O[C@H](CO)[C@@H](O)[C@@H]2C#N)c(=O)n1 [Compound 1-13, 2'-Cyano-2'-deoxy-N^4-stearoyl-1-β-D-arabinofuranosylcytosine] | – | – | 4/6 | 98.1% | 88.9% | – | – | – | –
CCCCCCCCCCCCCC(=O)Nc1ccn([C@@H]2O[C@H](CO)[C@@H](O)[C@@H]2C#N)c(=O)n1 [Compound 1-9, 2'-Cyano-2'-deoxy-N^4-tetradecanoyl-1-β-D-arabinofuranosylcytosine] | – | – | 5/6 | 97.3% | 79.1% | – | – | > 200% | 4/5
COCOCCCCCCCCCCCCCCCC(=O)Nc1ccn([C@@H]2O[C@H](CO)[C@@H](O)[C@@H]2C#N)c(=O)n1 [Compound 1-34, 2'-Cyano-2'-deoxy-N^4-(16-methoxymethoxyhexadecanoyl)-1-β-D-arabinofuranosylcytosine] | – | – | 5/6 | 96.0% | 87.2% | > 195% | 3/5 | – | –
COCCOCOCCCCCCCCCCCCCCCC(=O)Nc1ccn([C@@H]2O[C@H](CO)[C@@H](O)[C@@H]2C#N)c(=O)n1 [Compound 1-41, 2'-Cyano-2'-deoxy-N^4-(16-methoxyethoxymethoxyhexadecanoyl)-1-β-D-arabinofuranosylcytosine] | – | – | 5/6 | 99.2% | 76.2% | 159% | 2/5 | – | –
CCCCCC(=O)Nc1ccn([C@@H]2O[C@H](CO)[C@@H](O)[C@@H]2C#N)c(=O)n1 [Compound 1-1, 2'-Cyano-2'-deoxy-N^4-hexanoyl-1-β-D-arabinofuranosylcytosine] | – | – | 4/6 | 97.7% | 61.1% | – | – | – | –
COCOCCCCCCCCCC(=O)Nc1ccn([C@@H]2O[C@H](CO)[C@@H](O)[C@@H]2C#N)c(=O)n1 [Compound 1-31, 2'-Cyano-2'-deoxy-N^4-(10-methoxymethoxydecanoyl)-1-β-D-arabinofuranosylcytosine] | – | – | – | – | – | – | – | 152% | 0/5
N#CCCCCCCCCCCC(=O)Nc1ccn([C@@H]2O[C@H](CO)[C@@H](O)[C@@H]2C#N)c(=O)n1 [Compound 1-62, 2'-Cyano-N^4-(11-cyanoundecanoyl)-2'-deoxy-1-β-D-arabinofuranosylcytosine] | – | – | 6/6 | 99.0% | 83.3% | – | – | 159% | 0/5
CCCCCCCCCC(=O)Nc1ccn([C@@H]2O[C@H](CO)[C@@H](O)[C@@H]2C#N)c(=O)n1 [Compound 1-5, 2'-Cyano-N^4-decanoyl-2'-deoxy-1-β-D-arabinofuranosylcytosine] | – | – | 3/6 | 93.0% | 70.4% | – | – | – | –
